From patent publication US20230372301A1, “TREATMENTS WITH NIROGACESTAT” (SpringWorks Therapeutics, Inc., priority 2022, published 2023)
Counter-ions that a name gives are not always drawn. Like-named read-outs stand apart in the source and are kept apart here.

Experiments:
[1] = Pharmacokinetics of single oral doses of nirogacestat dihydrobromide; format: in vivo, human; conditions: for AUC(0-inf) / AUC(0-t) / Cmax / half-life / Tmax / Vd/F: human, in vivo, po
[2] = Pharmacokinetics of 150 mg nirogacestat dihydrobromide twice daily at steady state exposure; format: in vivo, human; conditions: 150 mg (free base equivalent dose) twice daily, oral
Procedure: The pharmacokinetic parameters for oral doses of 150 mg (free base equivalent dose) nirogacestat dihydrobromide twice daily at steady state exposure is provided in Table 2E below.

[3] = COHORT 1: 150 mg (1 × 150 mg), Period 2
[4] = COHORT 1: 150 mg (3 × 50 mg), Period 1
[5] = human, in vivo, steady state exposure

Structure (SMILES): CCC[C@H](N[C@H]1CCc2cc(F)cc(F)c2C1)C(=O)Nc1cn(C(C)(C)CNCC(C)(C)C)cn1 [nirogacestat dihydrobromide]
- CL/F, Geometric Mean [1, 3]: 49.7 L/h
- CL/F, Median [1, 3]: 48.4 L/h
- CL/F, Geometric Mean [1, 4]: 49.2 L/h
- CL/F, Median [1, 4]: 57.0 L/h
- CL/F, Geometric Mean ([1]; COHORT 2: 100 mg, Period 1): 56.1 L/h
- CL/F, Median ([1]; COHORT 2: 100 mg, Period 1): 58.4 L/h
- CL/F, Geometric Mean ([1]; COHORT 3: 50 mg, Period 1): 87.6 L/h
- CL/F, Median ([1]; COHORT 3: 50 mg, Period 1): 74.9 L/h
- AUC(0-inf) ([1]; 50 mg, COHORT 3: 50 mg, Period 1, read-out: AUCinf, Geometric Mean): 571 ng·h/mL
- AUC(0-inf) ([1]; 50 mg, COHORT 3: 50 mg, Period 1, read-out: AUCinf, Median): 674 ng·h/mL
- AUC(0-t) ([1]; 50 mg, COHORT 3: 50 mg, Period 1, read-out: AUClast, Geometric Mean): 545 ng·h/mL
- AUC(0-t) ([1]; 50 mg, COHORT 3: 50 mg, Period 1, read-out: AUClast, Median): 653 ng·h/mL
- Cmax ([1]; 50 mg, COHORT 3: 50 mg, Period 1, read-out: Cmax, Geometric Mean): 183 ng/mL
- Cmax ([1]; 50 mg, COHORT 3: 50 mg, Period 1, read-out: Cmax, Median): 209 ng/mL
- half-life ([1]; 50 mg, COHORT 3: 50 mg, Period 1, read-out: Half-life, Geometric Mean (converted)): 19.3 h
- half-life ([1]; 50 mg, COHORT 3: 50 mg, Period 1, read-out: Half-life, Median (converted)): 23.3 h
- Tmax ([1]; 50 mg, COHORT 3: 50 mg, Period 1, read-out: Tmax, Geometric Mean): 0.829 h
- Tmax ([1]; 50 mg, COHORT 3: 50 mg, Period 1, read-out: Tmax, Median): 1 h
- Vd/F ([1]; 50 mg, COHORT 3: 50 mg, Period 1, read-out: Vz/F, Geometric Mean): 2440 L
- Vd/F ([1]; 50 mg, COHORT 3: 50 mg, Period 1, read-out: Vz/F, Median): 2730 L
- AUC(0-inf) ([1]; 100 mg, COHORT 2: 100 mg, Period 1, read-out: AUCinf, Geometric Mean): 1780 ng·h/mL
- AUC(0-inf) ([1]; 100 mg, COHORT 2: 100 mg, Period 1, read-out: AUCinf, Median): 1710 ng·h/mL
- AUC(0-t) ([1]; 100 mg, COHORT 2: 100 mg, Period 1, read-out: AUClast, Geometric Mean): 1720 ng·h/mL
- AUC(0-t) ([1]; 100 mg, COHORT 2: 100 mg, Period 1, read-out: AUClast, Median): 1660 ng·h/mL
- Cmax ([1]; 100 mg, COHORT 2: 100 mg, Period 1, read-out: Cmax, Geometric Mean): 435 ng/mL
- Cmax ([1]; 100 mg, COHORT 2: 100 mg, Period 1, read-out: Cmax, Median): 433 ng/mL
- half-life ([1]; 100 mg, COHORT 2: 100 mg, Period 1, read-out: Half-life, Geometric Mean (converted)): 25.2 h
- half-life ([1]; 100 mg, COHORT 2: 100 mg, Period 1, read-out: Half-life, Median (converted)): 24.4 h
- Tmax ([1]; 100 mg, COHORT 2: 100 mg, Period 1, read-out: Tmax, Geometric Mean): 1.19 h
- Tmax ([1]; 100 mg, COHORT 2: 100 mg, Period 1, read-out: Tmax, Median): 1.28 h
- Vd/F ([1]; 100 mg, COHORT 2: 100 mg, Period 1, read-out: Vz/F, Geometric Mean): 2040 L
- Vd/F ([1]; 100 mg, COHORT 2: 100 mg, Period 1, read-out: Vz/F, Median): 2040 L
- AUC(0-inf) ([1]; 150 mg, COHORT 1: 150 mg (1 × 150 mg), Period 2, read-out: AUCinf, Geometric Mean): 3020 ng·h/mL
- AUC(0-inf) ([1]; 150 mg, COHORT 1: 150 mg (1 × 150 mg), Period 2, read-out: AUCinf, Median): 3100 ng·h/mL
- AUC(0-t) ([1]; 150 mg, COHORT 1: 150 mg (1 × 150 mg), Period 2, read-out: AUClast, Geometric Mean): 2930 ng·h/mL
- AUC(0-t) ([1]; 150 mg, COHORT 1: 150 mg (1 × 150 mg), Period 2, read-out: AUClast, Median): 3040 ng·h/mL
- Cmax ([1]; 150 mg, COHORT 1: 150 mg (1 × 150 mg), Period 2, read-out: Cmax, Geometric Mean): 686 ng/mL
- Cmax ([1]; 150 mg, COHORT 1: 150 mg (1 × 150 mg), Period 2, read-out: Cmax, Median): 662 ng/mL
- half-life ([1]; 150 mg, COHORT 1: 150 mg (1 × 150 mg), Period 2, read-out: Half-life, Geometric Mean (converted)): 24.7 h
- half-life ([1]; 150 mg, COHORT 1: 150 mg (1 × 150 mg), Period 2, read-out: Half-life, Median (converted)): 26.3 h
- Tmax ([1]; 150 mg, COHORT 1: 150 mg (1 × 150 mg), Period 2, read-out: Tmax, Geometric Mean): 1.2 h
- Tmax ([1]; 150 mg, COHORT 1: 150 mg (1 × 150 mg), Period 2, read-out: Tmax, Median): 1.5 h
- Vd/F ([1]; 150 mg, COHORT 1: 150 mg (1 × 150 mg), Period 2, read-out: Vz/F, Geometric Mean): 1770 L
- Vd/F ([1]; 150 mg, COHORT 1: 150 mg (1 × 150 mg), Period 2, read-out: Vz/F, Median): 1720 L
- AUC(0-inf) ([1]; 150 mg, COHORT 1: 150 mg (3 × 50 mg), Period 1, read-out: AUCinf, Geometric Mean): 3050 ng·h/mL
- AUC(0-inf) ([1]; 150 mg, COHORT 1: 150 mg (3 × 50 mg), Period 1, read-out: AUCinf, Median): 2640 ng·h/mL
- AUC(0-t) ([1]; 150 mg, COHORT 1: 150 mg (3 × 50 mg), Period 1, read-out: AUClast, Geometric Mean): 2960 ng·h/mL
- AUC(0-t) ([1]; 150 mg, COHORT 1: 150 mg (3 × 50 mg), Period 1, read-out: AUClast, Median): 2580 ng·h/mL
- Cmax ([1]; 150 mg, COHORT 1: 150 mg (3 × 50 mg), Period 1, read-out: Cmax, Geometric Mean): 733 ng/mL
- Cmax ([1]; 150 mg, COHORT 1: 150 mg (3 × 50 mg), Period 1, read-out: Cmax, Median): 697 ng/mL
- half-life ([1]; 150 mg, COHORT 1: 150 mg (3 × 50 mg), Period 1, read-out: Half-life, Geometric Mean (converted)): 25 h
- half-life ([1]; 150 mg, COHORT 1: 150 mg (3 × 50 mg), Period 1, read-out: Half-life, Median (converted)): 26.3 h
- Tmax ([1]; 150 mg, COHORT 1: 150 mg (3 × 50 mg), Period 1, read-out: Tmax, Geometric Mean): 1.34 h
- Tmax ([1]; 150 mg, COHORT 1: 150 mg (3 × 50 mg), Period 1, read-out: Tmax, Median): 1.49 h
- Vd/F ([1]; 150 mg, COHORT 1: 150 mg (3 × 50 mg), Period 1, read-out: Vz/F, Geometric Mean): 1770 L
- Vd/F ([1]; 150 mg, COHORT 1: 150 mg (3 × 50 mg), Period 1, read-out: Vz/F, Median): 1830 L
- Time to steady-state [2]: Approximately 8 days
- AUC [2, 5]: 6430 ng·h/mL
- Cmax [2, 5]: 1250 ng/mL
